In patent US7462598B2, “Antimicrobial theta defensins, analogs thereof, and methods of use” (priority 2002, dated 2008):
Bridge positions count the residues as written; N and C are the ends. Peptide text beside a SMILES is read from it.

Columns and labels:
E. coli ML35 [1] = test: Cell-suspension microbicidal assay (MMC); type: cell-based, Escherichia coli; settings: for MMC, E. coli: lowest concentration that reduced cell viability by 99.9%, 10 mM PIPES, 5 mM glucose, pH 7.4, 2 h 37° C.; for fold higher potency against E. coli than the peptide acid analog: carboxamide versus C-terminal acid of the same acyclic θ-defensin
Method: (§1) To test microbicidal activities, the activities of each peptide against S. aureus 502a, E. coli ML35, and C. albicans 16820 were assessed essentially as described in Example I with modifications to allow for simultaneous analysis of all twenty peptides. Briefly, two-fold serial dilutions of each peptide (in 0.01% acetic acid 0.062-8.0 μg/ml final concentrations) were mixed with 10 mM PIPES, pH 7.4, containing 5 mM glucose in sterile polystyrene 96-well plates (Corning, N.Y.). Aliquots of log-phase bacteria or yeast were added to a 2×10^6 CFU/ml final density as determined by A620. After 2 h incubation at 37° C., 15 μl of the incubation mixture was removed and serially diluted ten-fold from 1:10 to 1:10^6 in trypticase soy broth (bacteria) or Sabaraud dextrose broth (C. albicans). The diluted cell suspensions were grown 24-48 h at 37° C. until cell pellets were visible. Microbicidal activity was determined as absence of growth and was correlated to CFU/ml in control experiments where activity was determined in parallel by colony counting (see Example I). Absence of growth at the 1:10^3 dilution is equivalent to a 3-log reduction in microbial viability.
(§2) The microbicidal activities of each peptide against E. coli ML35, S. aureus 502a, and C. albicans 16820 were determined with cell-suspension microbicidal assays in 96-well plates (see Example II). Briefly, log-phase cells (2×10^6 CFU/ml final) were incubated with increasing concentrations of peptides (0-8 μg/ml final) in 50 μl of 10 mM PIPES, 5 mM glucose, pH 7.4, for 2 h at 37° C. Incubation mixtures were diluted 1:10 to 1:10^6 with trypticase-soy broth (bacteria) or Sabaraud dextrose broth (fungi) and incubated at 37° C. for 24-48 h until cell pellets were visible. Microbicidal activities (confirmed in control experiments as described in Example II) were determined as the absence of a cell pellet in the various dilutions. Peptide concentrations that caused ≧99.9% killing (absence of a cell pellet at 1:10^3 dilution) were taken as the minimum microbicidal concentrations (MMC).

S. aureus 502a = test: Cell-suspension microbicidal assay (MMC); type: cell-based, Staphylococcus aureus; settings: for MMC, S. aureus: lowest concentration that reduced cell viability by 99.9%, 10 mM PIPES, 5 mM glucose, pH 7.4, 2 h 37° C.; for fold reduction of staphylocidal potency relative to the peptide acid analog: carboxamide versus C-terminal acid of the same acyclic θ-defensin
Method: as §1, §2

[2] = tested on: S. aureus 502a, E. coli ML35, and C. albicans 16820; test: Cell-suspension microbicidal assay, statements across the test organisms (lowest MMC, overall ranges); type: cell-based; settings: peptide concentration that kill 99.9% of either S. aureus, E. coli, or C. albicans; lowest MMC value
Method: as §1, §2
(§3) A selectivity index (SI=H/M) was calculated as a ratio of a peptide concentration (μg/ml) that causes 3% hemolysis (H) obtained from a dose-dependent hemolysis plot over 0.3 to 3 μg/ml of each peptide in PBS and the lowest MMC value (M) for any of the three test microorganisms (see Example II; Table 2).

E. coli ML35 [3] = test: Membrane permeabilization assay (ONPG hydrolysis); type: cell-based, Escherichia coli; settings: rates at 1 μg/ml concentration of each peptide
Method: For the membrane permeabilization assay, the permeabilization of bacterial cytoplasmic membranes was determined by measuring hydrolysis of o-nitrophenyl-β-D-galactcpyranoside (ONPG) in E. coli ML35 (Sitaram et al., FEBS Lett. 303:265-268 (1992); Lehrer et al.,. J. Immunol. Methods 108:153-158 (1988)). Peptides dissolved in 5 μl of 0.01% acetic acid were two-fold serially diluted with 10 mM PIPES, pH 7.4, containing 3 mM ONPG, to final peptide concentrations of 0-8.0 μg/ml. Log-phase bacteria, prepared in PIPES buffer as described for the microbicidal assay (see Example I), were added to 1×10^6 CFU/ml final density in a final volume of 90 μl. ONPG hydrolysis was measured at 405 nm for 60 min using a SpectraMAX 190 plate reader and SOFTmaxPRO 3.1 (Molecular Devices Corp., CA). […]

C. albicans 16820 = test: Cell-suspension microbicidal assay (MMC); type: cell-based, Candida albicans; settings: for MMC, C. albicans: lowest concentration that reduced cell viability by 99.9%, 10 mM PIPES, 5 mM glucose, pH 7.4, 2 h 37° C.; for fold higher potency against C. albicans than the peptide acid analog: carboxamide versus C-terminal acid of the same acyclic θ-defensin
Method: as §1, §2

human erythrocytes = test: Hemolysis assay; type: cell-based
Method: For the hemolysis assay, the hemolytic activity of each peptide was determined by the method of Tam et al. (Tam et al., Eur. J. Biochem. 267:3289-3300 (2000)). Blood was obtained from a healthy donor in accordance to a protocol approved by the Institutional Review Board. Normal human serum was prepared from the same individual and stored at −20° C. Red blood cells (RBC) were prepared from blood collected in EDTA. RBC were harvested at 234×g for 10 min, 22° C., washed four times with 10 mM sodium phosphate, 150 mM NaCl, pH 7.4 (PBS), containing 4 mM EDTA and resuspended in PBS without EDTA. Peptides dissolved in 10 μl 0.01% HOAc were diluted with PBS to final concentrations of 0.3-100 μg/ml. RBC were added to a 2% final density in 100 μl. Incubation mixtures were also prepared with 10% serum. After 1 h incubation at 37° C., the cell suspensions were centrifuged at 234×g for 10 min, 22° C. Fifty-μl samples of the supernatants were removed, and the absorbance at 405 nm (A) was measured. Hemolytic activity of each peptide was calculated relative to lysis by 1% NP-40 using the following formula:
as §3

SMILES	MMC, E. coli (E. coli ML35 [1]) [µg/mL]	MMC, S. aureus (S. aureus 502a) [µg/mL]	M [2] [µg/mL]	ONPG hydrolysis (E. coli ML35 [3])	MMC, C. albicans (C. albicans 16820) [µg/mL]	fold lower staphylocidal potency than native PG-1 (S. aureus 502a; from MMC, Table 2) [fold]	fold lower candidacidal potency than native PG-1 (C. albicans 16820; from MMC, Table 2) [fold]	hemolysis (human erythrocytes)	fold higher potency against E. coli than the peptide acid analog (E. coli ML35 [1])	fold reduction of staphylocidal potency relative to the peptide acid analog (S. aureus 502a)	H (human erythrocytes; peptide concentration that causes 3% hemolysis, calculated from dose-dependent hemolysis plot over 0.3-3 μg/ml in PBS) [µg/mL]	fold higher potency against C. albicans than the peptide acid analog (C. albicans 16820)	fold lower staphylocidal activity than 3cys 3:1 PG-1-OH (S. aureus 502a; from MMC, Table 2)	fold lower candidacidal activity than 3cys 3:1 PG-1-OH (C. albicans 16820; from MMC, Table 2)
CC(C)[C@@H]1NC(=O)[C@@H]2CSSC[C@H](NC(=O)[C@H](CCCNC(=N)N)NC(=O)[C@@H](NC(=O)CNC(=O)CNC(=O)[C@@H](N)CCCNC(=N)N)CSSC[C@@H](C(=O)N[C@@H](CCCNC(=N)N)C(=O)O)NC1=O)C(=O)N[C@@H](Cc1ccc(O)cc1)C(=O)N[C@H]1CSSC[C@H](NC(=O)[C@H](Cc3ccccc3)NC(=O)[C@H](CCCNC(=N)N)NC(=O)[C@H](CCCNC(=N)N)NC(=O)[C@H](CCCNC(=N)N)NC1=O)C(=O)N[C@@H](C(C)C)C(=O)N2 [3cys 3:1 PG-1-OH] (H-RGGCRCYCRRRFCVCVCR-OH; disulfide 4-17, 6-15, 8-13; N-terminus assumed)	1.5	0.5	0.5	11.0 (A405/sec) · 10^−5	1.5	–	–	–	–	–	–	–	–	–
CC(C)[C@@H]1NC(=O)[C@@H]2CSSC[C@H](NC(=O)[C@H](CCCNC(=N)N)NC(=O)[C@@H](NC(=O)CNC(=O)CNC(=O)[C@@H](N)CCCNC(=N)N)CSSC[C@@H](C(=O)N[C@@H](CCCNC(=N)N)C(N)=O)NC1=O)C(=O)N[C@@H](Cc1ccc(O)cc1)C(=O)N[C@H]1CSSC[C@H](NC(=O)[C@H](Cc3ccccc3)NC(=O)[C@H](CCCNC(=N)N)NC(=O)[C@H](CCCNC(=N)N)NC(=O)[C@H](CCCNC(=N)N)NC1=O)C(=O)N[C@@H](C(C)C)C(=O)N2 [3cys 3:1 PG-1-NH] (H-RGGCRCYCRRRFCVCVCR-NH2; disulfide 4-17, 6-15, 8-13; N-terminus assumed)	1.5	2.0	1.5	12.3 (A405/sec) · 10^−5	4.0	5	5	–	–	–	–	–	–	–
CC(C)C[C@@H]1NC(=O)[C@H](CCCNC(=N)N)NC(=O)CNC(=O)CNC(=O)[C@H](CCCNC(=N)N)NC(=O)[C@H](CCCNC(=N)N)NC(=O)CNC(=O)[C@H](C(C)C)NC(=O)[C@@H]2CSSC[C@H](NC1=O)C(=O)N[C@@H](Cc1ccc(O)cc1)C(=O)N[C@H]1CSSC[C@H](NC(=O)[C@H](Cc3ccccc3)NC(=O)[C@H](CCCNC(=N)N)NC(=O)[C@H](CCCNC(=N)N)NC(=O)[C@H](CCCNC(=N)N)NC1=O)C(=O)N[C@@H](C(C)C)C(=O)N2 [cPG-1] (cyclo(GGRLCYCRRRFCVCVGRR); disulfide 5-14, 7-12)	1.0	2.0	1	11.0 (A405/sec) · 10^−5	2.5	5	3	40-50%	–	–	–	–	–	–
CC[C@H](C)[C@@H]1NC(=O)[C@@H]2CSSC[C@H](NC(=O)[C@H](CCCNC(=N)N)NC(=O)[C@@H](NC(=O)[C@H](Cc3ccccc3)NC(=O)CN)CSSC[C@@H](C(=O)N[C@H](C(=O)N[C@@H](CCCNC(=N)N)C(N)=O)[C@@H](C)O)NC1=O)C(=O)N[C@@H](CC(C)C)C(=O)N[C@H]1CSSC[C@H](NC(=O)[C@H](C(C)C)NC(=O)CNC(=O)[C@H](CCCNC(=N)N)NC(=O)[C@H](CCCNC(=N)N)NC1=O)C(=O)N[C@@H](CCCNC(=N)N)C(=O)N2 [aRTD-1-NH] (H-GFCRCLCRRGVCRCICTR-NH2; disulfide 3-16, 5-14, 7-12; N-terminus assumed)	2.0	5.0	1	8.8 (A405/sec) · 10^−5	1.0	–	–	–	4 fold	no effect	8.8	4 fold	–	–
CC(C)C[C@@H]1NC(=O)[C@@H]2CSSC[C@H](NC(=O)[C@H](CCCNC(=N)N)NC(=O)[C@@H](NC(=O)[C@@H](NC(=O)CN)C(C)C)CSSC[C@@H](C(=O)N[C@@H](CCCNC(=N)N)C(=O)N[C@@H](CCCNC(=N)N)C(N)=O)NC1=O)C(=O)N[C@@H](CC(C)C)C(=O)N[C@H]1CSSC[C@H](NC(=O)[C@H](C(C)C)NC(=O)CNC(=O)[C@H](CCCNC(=N)N)NC(=O)[C@H](CCCNC(=N)N)NC1=O)C(=O)N[C@@H](CCCNC(=N)N)C(=O)N2 [aRTD-3-NH] (H-GVCRCLCRRGVCRCLCRR-NH2; disulfide 3-16, 5-14, 7-12; N-terminus assumed)	1.0	4.5	0.75	9.7 (A405/sec) · 10^−5	0.8	–	–	–	2- to 4 fold	3 fold	–	2- to 4 fold	–	–
CC(C)C[C@H](NC(=O)[C@H](CCCNC(=N)N)NC(=O)CNC(=O)CN)C(=O)N[C@H]1CSSC[C@@H](C(=O)N[C@H](C(=O)NCC(=O)N[C@@H](CCCNC(=N)N)C(=O)N[C@@H](CCCNC(=N)N)C(=O)O)C(C)C)NC(=O)[C@H](C(C)C)NC(=O)[C@@H]2CSSC[C@H](NC(=O)[C@H](Cc3ccc(O)cc3)NC1=O)C(=O)N[C@@H](CCCNC(=N)N)C(=O)N[C@@H](CCCNC(=N)N)C(=O)N[C@@H](CCCNC(=N)N)C(=O)N[C@@H](Cc1ccccc1)C(=O)N2 [4:4 PG-1-OH] (H-GGRLCYCRRRFCVCVGRR-OH; disulfide 5-14, 7-12; N-terminus assumed)	1.0	1.0	1	12.1 (A405/sec) · 10^−5	2.5	–	–	–	–	–	–	–	–	–
CC(C)[C@@H]1NC(=O)[C@@H]2CSSC[C@H](NC(=O)[C@H](CCCNC(=N)N)NC(=O)[C@@H](NC(=O)CNC(=O)CN)CSSC[C@@H](C(=O)N[C@@H](CCCNC(=N)N)C(=O)N[C@@H](CCCNC(=N)N)C(=O)O)NC1=O)C(=O)N[C@@H](Cc1ccc(O)cc1)C(=O)N[C@H]1CSSC[C@H](NC(=O)[C@H](Cc3ccccc3)NC(=O)[C@H](CCCNC(=N)N)NC(=O)[C@H](CCCNC(=N)N)NC(=O)[C@H](CCCNC(=N)N)NC1=O)C(=O)N[C@@H](C(C)C)C(=O)N2 [3cys 2:2 PG-1-OH] (H-GGCRCYCRRRFCVCVCRR-OH; disulfide 3-16, 5-14, 7-12; N-terminus assumed)	1.0	2.0	1	13.0 (A405/sec) · 10^−5	4.0	–	–	–	–	–	–	–	2-4 fold	2-4 fold
